For assay [1], the system named is phospho-ERK in GP2D (KRAS-G12D) cells. Put plainly: pERK In Cell Western (ICW) assay (Method B), GP2D. Conditions: GP2d, 3 h, Table 4. The class given is cell-based. Here is the method:
pERK ICW is a high throughput screening assay to evaluate the cellular potency of mutant KRAS small molecule inhibitors. KRAS mutant cell lines AGS, GP2D (KRAS-G12D) as well as SW620 (KRAS-G12V) were purchased from ATCC and maintained respectively in RPMI/DMEM/RPMI medium supplemented with 10% fetal bovine serum.
Cells grown in exponential phase were trypsinized, resuspended in fresh media, and viable cells were counted using a cell counter with Trypan Blue (BioRad TC20). Cells were seeded into 384-well plate (Greiner 781091) at density of 5,000 cells/well for AGS and 10,000 cells/well for GP2D/SW620 and allowed to grow overnight in a 37° C. CO2 incubator. The next day, compounds were dispensed into wells with a ½ log, 9-point serial dilution using a Tecan D300e dispenser and incubated for 3 hours in a 37° C. CO2 incubator. Cells were then fixed with paraformaldehyde (Electron Microscopy Sciences, 15710, 4% final concentration) for 30 min, permeabilized with wash buffer (1×PBS+0.1% Triton X-100) for 30 min and blocked with Odyssey blocking buffer (Li—COR 927-70001) for 1 hour, all at room temperature (RT). Phospho-ERK antibody (CST 4370L) was diluted 1:500 in Odyssey T20 (PBS) antibody diluent (Li—COR 927-75001) and incubated with cells overnight at 4° C. The next day, plates were washed 5× with wash buffer, incubated with IRDye 800 CW, Goat anti-Rabbit secondary antibody (Li—COR 926-32211, 1:800) and DRAQ5 (CST 4084L, 1:5,000) diluted in Odyssey T20 (PBS) antibody diluent for 1 hour, washed 5×, and imaged on an Odyssey CLx imaging system.
For data analysis, signal intensities from 800 (phosphor-ERK) and 700 (DRAQ5) channels were extracted, and phospho-ERK signals were normalized to DRAQ5 signals for each well and percent of blank control values were computed. Data were then imported into Graphpad Prism to compute half-maximal inhibitory concentrations (IC50) using a 4-parameter variable slope model. Z-factor for each plate was computed from signals derived from wells treated with either DMSO or 5 μM of control compound. AGS pERK ICW (Method B) IC50 (uM) values of selected compounds are depicted in Table 2 with compounds having a value ≥0.001 uM to 0.01 uM as ++++; ≥0.01 uM to 0.1 uM as +++; ≥0.1 uM to 1 uM as ++; ≥1 uM to 10 uM as + and ≥10 uM as NA.

Assay [2] concerns the target GST-tagged KRAS-G12D (2-169) (Homo sapiens, UniProt P01116, G12D). Put plainly: Nucleotide exchange assay (NEA), SOS-mediated, HTRF, KRAS G12D. Format: biochemical. The following applies: Table 4; IC50 extracted at 30 min; 20 nM SOScat; read-out: NEA G12D IC50. Put shortly:
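SOS1cat-driven loading of fluorescent GTP-DY-647P1 (150 nM) onto GST-KRAS-G12D (2-169, 0.25 nM) read by time-resolved FRET; SOScat 20 nM, compound preincubated with KRAS 1 h at RT. Signal blanked to no-SOS reactions, normalized to DMSO; IC50 fitted from the 30-min read.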
On the technique in general: TR-FRET usually uses a lanthanide donor and a delayed reading to cut background.

In assay [3] the test system is phospho-ERK in SW620 (KRAS-G12V) cells. Nature of the assay: pERK In Cell Western (ICW) assay (Method B), SW620. Format: cell-based. The following applies: Homo sapiens, SW-620, 3 h, Table 4. Put shortly:
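After overnight attachment, cells received nine half-log compound concentrations for 3 hours, were fixed, permeabilized and probed with phospho-ERK antibody plus DRAQ5. Normalized pERK signal versus blank control yields IC50 via variable-slope four-parameter fit.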

The target in assay [4] is GST-tagged KRAS-G12V (2-169) (Homo sapiens, UniProt P01116, G12V). Nature of the assay: Nucleotide exchange assay (NEA), SOS-mediated, HTRF, KRAS G12V. Format: biochemical. The following applies: Table 4; IC50 extracted at 90 min; 80 nM SOS. Put shortly: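 Exchange onto fluorescent GTP-DY-647P1 (150 nM final) catalysed by 80 nM SOS1cat was followed by Tb-anti-GST HTRF at RT for up to 90 min, after 1 h compound pre-incubation with 0.25 nM GST-tagged KRAS-G12V (2-169), pH 7.3. DMSO = 0%, no-SOS blank = 100%; 4-parameter IC50 taken at 90 min.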
Chain of GST-tagged KRAS-G12V (2-169) (P01116 2-169 isoform P01116-2 G12V): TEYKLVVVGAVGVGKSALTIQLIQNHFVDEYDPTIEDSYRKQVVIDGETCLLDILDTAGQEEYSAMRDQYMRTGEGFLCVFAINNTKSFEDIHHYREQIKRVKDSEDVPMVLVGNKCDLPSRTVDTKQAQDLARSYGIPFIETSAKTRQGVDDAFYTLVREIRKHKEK

A value given as a limit tells only on which side of the number the result lay.

Experimental findings from patent US12421254B2, “KRAS modulators and uses thereof” (Quanta Therapeutics, Inc., priority 2023, dated 2025) are described below.

Chain of GST-tagged KRAS-G12D (2-169) (P01116 2-169 isoform P01116-2 G12D): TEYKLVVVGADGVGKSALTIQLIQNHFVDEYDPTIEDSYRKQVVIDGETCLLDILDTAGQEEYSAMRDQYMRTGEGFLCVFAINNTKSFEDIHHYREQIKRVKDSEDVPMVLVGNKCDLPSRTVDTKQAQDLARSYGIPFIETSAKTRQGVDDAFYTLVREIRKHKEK

The IC50 is the concentration that inhibits the measured activity by half. On to `C[C@H](c1cccnc1N)N(c1nc(OC[C@@]23CCCN2C[C@H](F)C3)nc(N2CC3(C2)SCc2sc(N)c(C#N)c23)n1)C1CC1` [Compound 264, 2-amino-1′-[4-[[(1R)-1-(2-amino-3-pyridyl)ethyl]-cyclopropyl-amino]-6-[[(2R,8S)-2-fluoro-1,2,3,5,6,7-hexahydropyrrolizin-8-yl]methoxy]-1,3,5-triazin-2-yl]spiro[6H-thieno[3,4-b]thiophene-4,3′-azetidine]-3-carbonitrile], for which the half-inhibitory concentration (IC50) in assay [1] is 10 to 100 nM; in assay [2], below 10 nM; in assay [3] it was below 10 nM; in assay [4], below 10 nM.

Regarding `CCN(c1nc(OC[C@@]23CCCN2C[C@H](F)C3)nc(N2CC3(C2)c2c(sc(N)c2C#N)CN3C)n1)[C@H](C)c1cccnc1N` [Compound 226, 2-amino-1′-[4-[[(1R)-1-(2-amino-3-pyridyl)ethyl]-ethyl-amino]-6-[[(2R,8S)-2-fluoro-1,2,3,5,6,7-hexahydropyrrolizin-8-yl]methoxy]-1,3,5-triazin-2-yl]-5-methyl-spiro[6H-thieno[2,3-c]pyrrole-4,3′-azetidine]-3-carbonitrile], the IC50 in assay [1] is 10 to 100 nM; in assay [2], below 10 nM; in assay [3] it was 10 to 100 nM; in assay [4], below 10 nM.

Turning to `CN(c1nc(OC[C@@]23CCCN2C[C@H](F)C3)nc(N2CC3(C2)SCc2sc(N)c(C#N)c23)n1)C1CC1` [Compound 160, 2-amino-1′-[4-[cyclopropyl(methyl)amino]-6-[[(2R,8S)-2-fluoro-1,2,3,5,6,7-hexahydropyrrolizin-8-yl]methoxy]-1,3,5-triazin-2-yl]spiro[6H-thieno[3,4-b]thiophene-4,3′-azetidine]-3-carbonitrile], the IC50 in assay [1] fell in the range of 100 to 1000 nM; in assay [2] it was 10 to 100 nM; in assay [3], 100 to 1000 nM; in assay [4] it was 10 to 100 nM.

Regarding `CC1(NC#N)CCCN(c2nc(OC[C@@]34CCCN3C[C@H](F)C4)nc(N3CC4(CCc5sc(N)c(C#N)c54)C3)n2)C1` (stereo partly drawn) [Compound 52, [1-[4-(2-amino-3-cyano-spiro[5,6-dihydrocyclopenta[b]thiophene-4,3′-azetidine]-1′-yl)-6-[[(2R,8S)-2-fluoro-1,2,3,5,6,7-hexahydropyrrolizin-8-yl]methoxy]-1,3,5-triazin-2-yl]-3-methyl-3-piperidyl]cyanamide], the IC50 in assay [1] is 100 to 1000 nM; in assay [2], 10 to 100 nM; in assay [3], 1000 to 20000 nM; in assay [4], 10 to 100 nM.

On to `N#Cc1c(N)sc2c1C1(CC2)CN(c2nc(OC[C@@]34CCCN3C[C@H](F)C4)nc(N3CCCC(O)(C(F)F)C3)n2)C1` (stereo partly drawn) [Compound 87, 2-amino-1′-[4-[3-(difluoromethyl)-3-hydroxy-1-piperidyl]-6-[[(2R,8S)-2-fluoro-1,2,3,5,6,7-hexahydropyrrolizin-8-yl]methoxy]-1,3,5-triazin-2-yl]spiro[5,6-dihydrocyclopenta[b]thiophene-4,3′-azetidine]-3-carbonitrile], for which the IC50 is 100 to 1000 nM in assay [1], 10 to 100 nM in assay [2], 1000 to 20000 nM in assay [3] and 10 to 100 nM in assay [4].

As for `N#Cc1c(N)sc2c1C1(CN(c3nc(OCC4(CN5CCOCC5)CC4)nc(N4CCNC[C@H]4C(F)F)n3)C1)SC2` [Compound 190, (S)-2′-amino-1-(4-(2-(difluoromethyl)piperazin-1-yl)-6-((1-(morpholinomethyl)cyclopropyl)methoxy)-1,3,5-triazin-2-yl)-6′H-spiro[azetidine-3,4′-thieno[3,4-b]thiophene]-3′-carbonitrile], the half-inhibitory concentration (IC50) in assay [1] was 100 to 1000 nM; in assay [2] it was below 10 nM; in assay [3], 1000 to 20000 nM; in assay [4], 10 to 100 nM.

As for `N#CCC12CC1CCN(c1nc(OC[C@@]34CCCN3C[C@H](F)C4)nc(N3CC4(CCc5sc(N)c(C#N)c54)C3)n1)C2` (stereo partly drawn) [Compound 43, 2-amino-1′-[4-[1-(cyanomethyl)-3-azabicyclo[4.1.0]heptan-3-yl]-6-[[(2R,8S)-2-fluoro-1,2,3,5,6,7-hexahydropyrrolizin-8-yl]methoxy]-1,3,5-triazin-2-yl]spiro[5,6-dihydrocyclopenta[b]thiophene-4,3′-azetidine]-3-carbonitrile], the IC50 in assay [1] was in the range of 1000 to 20000 nM; in assay [2], 10 to 100 nM; in assay [3] it was 1000 to 20000 nM; in assay [4] it was 10 to 100 nM.

Take `C[C@@]1(O)CCCN(c2nc(OC[C@@]34CCCN3C[C@H](F)C4)nc(N3CC4(C3)SCc3sc(N)c(C#N)c34)n2)C1` [Compound 49, 2-amino-1′-[4-[[(2R,8S)-2-fluoro-1,2,3,5,6,7-hexahydropyrrolizin-8-yl]methoxy]-6-[(3R)-3-hydroxy-3-methyl-1-piperidyl]-1,3,5-triazin-2-yl]spiro[6H-thieno[2,3-c]thiophene-4,3′-azetidine]-3-carbonitrile]: the IC50 was below 10 nM in assay [1], below 10 nM in assay [2], 100 to 1000 nM in assay [3] and below 10 nM in assay [4].

Turning to `C[C@]1(O)CN(c2nc(OC[C@@]34CCCN3C[C@H](F)C4)nc(N3CC4(CCc5sc(N)c(C#N)c54)C3)n2)CC[C@@H]1O` (racemic) [Compound 62, 2-amino-1′-[4-[rac-(3S,4S)-3,4-dihydroxy-3-methyl-1-piperidyl]-6-[[(2R,8S)-2-fluoro-1,2,3,5,6,7-hexahydropyrrolizin-8-yl]methoxy]-1,3,5-triazin-2-yl]spiro[5,6-dihydrocyclopenta[b]thiophene-4,3′-azetidine]-3-carbonitrile], the concentration for half-maximal inhibition (IC50) in assay [1] is at least 20000 nM; in assay [2], 100 to 1000 nM; in assay [3], at least 20000 nM; in assay [4] it was 100 to 1000 nM.

For the compound `N#Cc1c(N)sc2c1C1(CN(c3nc(OC[C@@]45CCCN4C[C@H](F)C5)nc(N4CCOCC(C#N)C4)n3)C1)SC2` (stereo partly drawn) [Compound 146, 4-[4-(2-amino-3-cyano-spiro[6H-thieno[3,4-b]thiophene-4,3′-azetidine]-1′-yl)-6-[[(2R,8S)-2-fluoro-1,2,3,5,6,7-hexahydropyrrolizin-8-yl]methoxy]-1,3,5-triazin-2-yl]-1,4-oxazepane-6-carbonitrile], the IC50 in assay [1] was 100 to 1000 nM; in assay [2], 10 to 100 nM; in assay [3], 100 to 1000 nM; in assay [4] it was below 10 nM.

Regarding `CC(c1cccnc1N)N(C)c1nc(OCC2(CN3CCOCC3)CC2)nc(N2CC3(C2)SCc2sc(N)c(C#N)c23)n1` (stereo not drawn) [Compound 128, 2-amino-1′-[4-[1-(2-amino-3-pyridyl)ethyl-methyl-amino]-6-[[1-(morpholinomethyl)cyclopropyl]methoxy]-1,3,5-triazin-2-yl]spiro[6H-thieno[3,4-b]thiophene-4,3′-azetidine]-3-carbonitrile], the IC50 in assay [1] was 100 to 1000 nM; in assay [2], 10 to 100 nM; in assay [3], 10 to 100 nM; in assay [4] it was below 10 nM.

For `CC1(O)CC(F)CN(c2nc(OCC3(CN4CCOCC4)CC3)nc(N3CC4(CCc5sc(N)c(C#N)c54)C3)n2)C1` (stereo not drawn) [Compound 93, 2′-amino-1-(4-(5-fluoro-3-hydroxy-3-methylpiperidin-1-yl)-6-((1-(morpholinomethyl)cyclopropyl)methoxy)-1,3,5-triazin-2-yl)-5′,6′-dihydrospiro[azetidine-3,4′-cyclopenta[b]thiophene]-3′-carbonitrile], the IC50 in assay [1] was 10 to 100 nM; in assay [2] it was below 10 nM; in assay [3] it was 10 to 100 nM; in assay [4] it was below 10 nM.
